The values below come from PMC9331678 (Molecules, 2022).

For data set [1] the following is noted: plasma kept at ambient temperature for 24 h; ref 24 (Huynh et al.); cited from earlier work.
For data set [2] the following is noted: cited from earlier work.
The conditions of data set [3]: cited from earlier work. This is another data set of the same source.
Data set [4] relates to plasma albumin. As to conditions: cited from earlier work.
Data set [5] can be described thus: 6 h benchtop (early preanalytical) stability in whole blood and in plasma. Particulars: ambient temperature (25 °C), up to 6 h. Type of data set: in vitro ADME, human. The method, then: Six independent plasma samples were processed. The reference solutions were 140 µL acetonitrile-water 4:1 (v/v) mixtures spiked as described above. The mixtures and the reference solutions were subsequently diluted with 90 µL water. Internal standard-corrected matrix factors were calculated as the peak area ratios of the analytes and the internal standards in prepared plasma versus those in a neat solution. In the stability studies, the recoveries of IBR and DIB were calculated as the ratio of the concentrations measured after incubation and those measured at the beginning of the study.
The preanalytical stability of IBR and DIB was evaluated by adding 20 µL methanol solutions containing 500 ng/mL IBR and DIB to two 1.0 mL aliquots of blood freshly drawn into phlebotomy tubes containing K3-EDTA. Three samples, 3 mL each, were taken from three healthy volunteers (manuscript authors G.B.K., I.V. and Z.K.). One of the fractions was centrifuged at 3000 rpm and 10 °C for 10 min immediately after spiking the analytes, and plasma was separated. Both spiked whole blood and the separated plasma were kept at ambient temperature for 6 h. […] Fifty microliters was drawn from the supernatant of the whole blood sample as well as from the plasma, and was processed as described in Section 2.2.

Molecules are shown by their SMILES.

Turning to `C=CC(=O)N1CCC[C@@H](n2nc(-c3ccc(Oc4ccccc4)cc3)c3c(N)ncnc32)C1` [Ibrutinib, 1-[(3R)-3-[4-Amino-3-(4-phenoxyphenyl)-1H-pyrazolo[3,4-d]pyrimidin-1-yl]-1-piperidinyl]-2-propen-1-one], in data set [1], the recoveries is listed as 46.7–72.9%. Besides, in data set [2], the solubility in water entry is “poor”. In addition, in data set [3], the oral bioavailability result was “low”. Further, in data set [4], the “affinity to plasma albumin” value is on record as greater than 95%. This compound also registered a recovery at 9.8 ng/mL in data set [5] (human, plasma (separated from spiked K3-EDTA whole blood), plasma, all analyses) of no less than 85%. Moreover, in data set [5] (whole blood), the “cases with recoveries lower than 85% (of fifteen analyses)” value was “two”.
